{"source": "patent US7329638B2", "about": "“Drug delivery compositions” (priority 2003, dated 2008)", "key": {"[1]": {"system": "MCF7/ADR cells", "test": "MTT cytotoxicity and drug accumulation in doxorubicin resistant MCF7/ADR cells", "type": "cell-based", "settings": "for IC50: Homo sapiens, NCI/ADR-RES, 48 h, MCF7/ADR, 48 hrs exposure, MTT", "experimental": "In some embodiments, monolayer doxorubicin sensitive (MCF7) and resistant (MCF7/ADR) cells were then exposed to either doxorubicin or TAT-Dox conjugates at various concentrations (up to 100 μM) for 48 hrs in the presence or absence of 10 μM verapamil. Cell viability was measured by MTT assay. […] Verapamil, a P-glycoprotein inhibitor, was able to restore most of the cytotoxic activities of free doxorubicin."}, "[2]": {"settings": "oral administration; cited from earlier work"}, "[3]": {"system": "implanted tumors", "test": "Tumor regression in tumor-bearing mice, intratumoral injection (RNase series)", "type": "in vivo", "settings": "excised thirty days (4 weeks) after initial treatment", "experimental": "Drugs were administered by intratumoral injection. Injections were started 3 weeks after tumor cell implantation when tumors reached the size about 100 mm^3. Thirty days after initial treatment, mice were sacrificed and their tumors were excised, weighed, and photographed.\nFor example, in test animals an average tumor weight of 2.92±0.47 g (N=5) was observed 4 weeks after treatment (Lane 4; FIG. 11B) that was statistically indistinguishable from the value of 3.16±0.65 g (Lane 2 in FIG. 11B) of the control group without treatment. […] The addition of protamine to the heparin-inhibited TAT-RNase conjugates completely reversed inhibition and tumor growth was regressed to an insignificant weight of 0.09±0.05 g (Lane 5; FIG. 11B)."}, "[4]": {"system": "CT-26 cells", "test": "Translocation of rhodamine-labeled gelonin by TAT or LMWP (fluorescence microscopy)", "type": "cell-based", "settings": "CT-26, 2 hrs incubation", "experimental": "FIGS. 15A and 15B show the translocation of gelonin into the CT-26 cells with the aid of: TAT (FIG. 15A); or LMWP (FIG. 15B). Fluorescent microscopy was conducted on cells treated with rhodamine-labeled TAT- or LMWP-gelonin following 2 hrs of incubation in CT-26 cells.\nIn some embodiments, studies were preformed to compare the capabilities of LMWP and TAT in protein translocation. In some of these embodiments, the LMWP and TAT peptides were conjugated to gelonin using the PDPH method described herein. To create a -SH group for coupling, LMWP was modified prior to its conjugation by treatment with SPDP and DTT, using the protocol established by J. Carlsson et al., (J. Carlsson et al., Biochem. J., 173:723-737 [1978]). Gelonin was labeled with rhodamine prior to conjugation."}, "[5]": {"system": "MCF-7 cells", "test": "Cell translocation and uptake kinetics of FITC-labeled LMWP and TAT", "type": "cell-based", "experimental": "Cells were incubated with the FITC-labeled peptides and then lysed. Fluorescence intensities in the supernatants were measured.\nIn some embodiments, purified LMWP was prepared according to the method described in L.C. Chang et al., AAPS PharmSci., 3(2) Article 17 [2001]. In some additional embodiments, cell internalization characteristics of TAT and LMWP were compared by confocol microscopy using FITC-labeled peptides. Like TAT, after 15 min of incubation with MCF-7 cells at 37° C., more than 70% of the FITC-labeled LMWP entered the cytosol of the MCF-7 cells (FIG. 13). […] The reason for the difference in cell localization remains unclear, however, while the present invention is not limited to any particular mechanism, it is contemplated that TAT, which contains the sequence of the nuclear localization signal (NLS) peptide, can penetrate into the cell's nucleus either through pores on the nuclear envelope, or via binding with certain cytoplasmic components which confer nuclear localization. (L. Chaloin et al., Biochem. Biophys. Res. Commun., 243:601-608 [1998]; and M. A. Zanta M A et al., Proc. Natl. Acad. Sci. USA, 96:91-96 [1999]). In some embodiments, the localization of TAT and TAT-like peptides can be directed to the cytoplasm or to other sites within the cell by making altering portions of its amino acid sequence. (See e.g., M. M. Gottesman et al., Nature Reviews Cancer, 2:48-58 [2002]). In some preferred embodiments, the sequence of the PTD component/subcomponent of the drug delivery composition is selected or modified (e.g., amino acid sequence altered) so that the composition and the therapeutic molecule(s) being carried are localized to the cytoplasm. The present invention contemplates that in certain embodiments the localization of the drug delivery compositions to the cytoplasm aids in the penetration of the therapeutic molecules throughout the targeted tissue (e.g., from the tumor periphery to the tumor core).\nFIG. 14 provides a comparison of the rate of cellular uptake of LMWP and TAT. […]"}, "[6]": {"system": "MCF-7 cells", "test": "Cellular uptake of FITC-labeled gelonin and TAT-Gel (FACS and confocal microscopy)", "type": "cell-based", "settings": "MCF-7, FITC label, 10 nM, 1 hr at 37° C.", "experimental": "FIGS. 7A-7D show the cellular uptake of TAT and TAT-Gel conjugates into MCF-7 cells. The left two panels provide confocol microphotograph sections of DIC image and corresponding fluorescent images, whereas right panels show FACS results (ordinate, number of cells, abcissa, fluorescent intensity). Cells were treated with FITC-labeled gelonin (FIG. 7A); TAT-Gel (FIG. 7B); TAT-Gel+heparin (FIG. 7C); and TAT-Gel+heparin and then+protamine (FIG. 7D). Protein concentration was adjusted to 10 nM, and the incubation time was 1 hr at 37° C.\nIn certain embodiments, the TAT-mediated cell internalization and the cytotoxicity of TAT-Gel were examined in vitro in MCF-7 and CT-26 cell cultures. The membrane-transducing ability of the TAT-Gel conjugates was determined using fluorescence (FITC)-labeled gelonin or TAT-Gel added to the culture media of MCF-7 cells, followed by analysis by both the fluorescence activated cell sorting (FACS) and confocol microscopy. […] On the other hand, almost all of the FITC labels were found inside, and specifically inside the cytosol (see confocol results), of all (˜100%) cells (see the FACS data) within one hour of incubation of the cells with the TAT-Gel conjugates (FIG. 7B). Considering the fact that gelonin exerts its cytotoxic activity via binding with ribosomes and cleaving RNA, this cytosolic localization actually yields beneficial therapeutic affects. […]"}, "[7]": {"system": "CT-26 murine adenocarcinoma colon cancer cells", "test": "MTT cytotoxicity in CT-26 cells in log-phase culture", "type": "cell-based", "settings": "CT-26, MTT", "description": "Various doses of each test compound were added to 96-well culture plates containing approximately 5,000 cells/well. The plates were incubated for 48 hrs at 37° C. under an atmosphere of 5% CO2 in humidified air. Remaining cells were assessed using MTT and compared to untreated control wells. Values shown are means±standard deviation.\nCytotoxicity was measured as described in FIG. 8.\nVarious doses of each compound were added to 96-well culture plates containing approximately 5,000 cells/well. The plates were incubated for 48 hrs at 37° C. under an atmosphere of 5% CO2 in humidified air in an incubator. Test cells were assessed by MTT assay and then compared to untreated cells in control wells. Values are represented as means±standard deviation. Each experiment was performed in triplicate.\nIn additional embodiments, the cytotoxicity of gelonin and the TAT-Gel conjugates were examined in CT-26 murine adenocarcinoma colon cancer cells in log-phase culture."}, "[8]": {"system": "murine tumor tissues", "test": "Tumor penetration of rhodamine-labeled gelonin and TAT-Gel", "type": "in vivo, mice", "settings": "tumors isolated at 10 hrs after injection", "from_the_text": "FIGS. 18A and 18B show tumor penetration of rhodamine-labeled TAT-Gel conjugates (FIG. 18A), and free gelonin (FIG. 18B). Tumors were isolated at 10 hrs after injection of the rhodamine-labeled TAT-Gel conjugate or free gelonin and then photographed.\nTo further confirm that TAT-Gel conjugates penetrate into tumor tissues, rhodamine-labeled gelonin was used in several additional in vivo studies. […] The extremely efficient tumor penetration and widespread drug distribution capabilities of the compositions and methods of the present invention are of great significance to anticancer therapy."}, "[9]": {"system": "CT26 colon carcinoma", "test": "Tumor regression in CT-26 tumor-bearing mice, intratumoral injection (gelonin series)", "type": "in vivo, BALB/c mice"}}, "note": "Values joined by “and” are separate entries in the source; they are usually repeats but may differ in a detail not shown here. Equal values may be shown once."}
{"compound": "COc1cccc2c1C(=O)c1c(O)c3c(c(O)c1C2=O)C[C@@](O)(C(=O)CO)C[C@@H]3O[C@H]1C[C@H](N)[C@H](O)[C@H](C)O1", "note": "[Dox, doxorubicin]", "values": [{"measurement": "IC50", "setting": "[1]; Verapamil (10 μM)", "value": 6.7, "unit": "µM"}, {"measurement": "IC50", "setting": "[1]; without verapamil", "value": 45.2, "unit": "µM"}, {"measurement": "IC50 of free doxorubicin relative to Dox-TAT conjugates", "setting": "[1]; MCF7/MDR cells", "value": "~8", "unit": "fold"}, {"measurement": "amount of doxorubicin seen in cells by fluorescence microscopy", "setting": "[1]; MDR cells", "value": "negligible amount"}]}
{"compound": "N[C@@H](Cc1ccc(O)c(O)c1)C(=O)O", "note": "[levodopa, L-3,4-dihydroxy-phenylalanine]", "values": [{"measurement": "fraction that penetrates the CNS", "setting": "[2]", "value": "less than 1%"}]}
{"compound": "RNase", "values": [{"measurement": "average tumor mass", "setting": "[3]", "value": "2.92 ± 0.47", "unit": "g"}]}
{"compound": "TAT: highly cationic 11 amino acid section of the TAT-peptide (YGRKKRRQRRR; SEQ ID NO:6)", "values": [{"measurement": "translocation of rhodamine-labeled gelonin into cells", "setting": "[4]", "value": "capable of translocating gelonin"}, {"measurement": "rate of cellular uptake (comparison in words)", "setting": "[5]; MCF-7", "value": "slightly faster cellular uptake than LMWP"}, {"measurement": "incubation time at which cellular concentration reached a maximum", "setting": "[5]; MCF-7, FITC-labeled peptides", "value": 30, "unit": "min"}, {"measurement": "subcellular localization", "setting": "[5]; MCF-7, after 30 min incubation", "value": "primarily localizes in the nucleus"}]}
{"compound": "gelonin", "values": [{"measurement": "cellular uptake (confocal and FACS, in words)", "setting": "[6]", "value": "virtually no cellular uptake"}, {"measurement": "cytotoxicity / inhibition of cell growth (in words)", "setting": "[7]", "value": "did not induce cell death"}, {"measurement": "cytotoxicity / inhibition of cell growth (in words)", "setting": "[7]; listed as Gelonin", "value": "did not display any detectable inhibition on cell growth"}, {"measurement": "tumor penetration (rhodamine staining of excised tumor)", "setting": "[8]", "value": "virtually no staining or only sporadic weak staining"}, {"measurement": "average tumor mass", "setting": "[9]; excised thirty days (four weeks) after initial treatment, intratumoral, 9 treatments", "value": "2.63 ± 0.5 g and 2.62 ± 0.53 g"}, {"measurement": "gross appearance of tumor after treatment", "setting": "[9]; two and four weeks after intratumoral injection", "value": "not cytotoxic to the tumor"}]}
